# Experimental data from a melting point compilation (Tetko et al.; mined from patent text by program, amines drawn as free bases though some values may be those of a salt).
row,SMILES,melting point [°C]
1,CC1(C)CC(C)(c2ccc(Oc3ccc(N)cc3)cc2)c2cc(Oc3ccc(N)cc3)ccc21 (stereo unspecified),135 to 136
2,CC1(C)COC(=S)N(Cc2ccccc2N)C1,90.8 to 92.1
3,Cc1ccccc1-n1c(CC(O)c2ccccc2)nc2ccccc2c1=O (stereo unspecified),119
4,CC1(C)CCC(C)(C)c2cc(S(=O)c3ccc(C(=O)O)cc3)ccc21 (stereo unspecified),214 to 216
5,Cc1ccc2c(=O)n3nccc3[nH]c2n1,> 300
6,CCCC12CCC3C4=C(CCC3C1CCC2=O)CC(OC)=CC4 (stereo unspecified),128 to 131
7,CN(C)NC(=O)NC(C(=O)O)c1cccs1 (stereo unspecified),208 to 210
8,CNC(=S)Nc1ccccc1N1CCCC1,125 to 126
9,CCNC(=O)c1ccc(N2CCN(Cc3cc4c(c(OC)c3)OC(C)C(=O)N4)CC2)c(Cl)c1 (stereo unspecified),119 to 121
10,CC(C)(C)NC(=O)[C@@H]1CNNC1=O,175 to 178
11,COc1ccc([N+](=O)[O-])cc1CNC(C)=O,158 to 160
12,CCOC(=O)c1cc(CC)sc1Nc1cc(F)ccc1N,100 to 101
13,CCN[C@H]1C[C@H](CCCOCCOC)S(=O)(=O)c2sc(S(N)(=O)=O)cc21 (relative stereo),177 to 179
14,COc1cc(-c2nc(N)sc2CCC2CCCCC2)c(OC)cc1C,112
15,COC(=O)CSc1nc(N2CCN(c3ncccn3)CC2)ncc1[N+](=O)[O-],250 to 252
16,CCn1c(=O)c2[nH]c(/C=C/c3cccc(OC)c3OC)nc2n(CC)c1=O,288 to 289

row,SMILES,melting point [°C]
1,CCCc1cc(N2CCN(c3ccncc3)CC2)ccc1OCCCC(=O)OCC,65 to 67
2,CN(C)CCNC1=CC(=O)c2oc(-c3cc(F)c(F)c(F)c3)nc2C1=O,200 to 201
3,CCOC(=O)c1csc(N2CCOC2=O)n1,157 to 159
4,CC(=O)OC1CCC2(C)C(CCC3C4CCC(C(C)=O)C4(C)CC(=O)C32Cl)C1 (stereo unspecified),151 to 154
5,Cc1nc2cc(Nc3nccc(-c4ccc(N5CCNCC5)nc4)n3)ccc2s1,209 to 211
6,CSCC1CCN(c2cn(-c3cccnc3)nc2Cl)C1=O (stereo unspecified),83 to 84
7,O=C(Nc1cnc(N2CCCC2)cc1C(F)(F)F)c1cc2cc(C(F)(F)F)cnc2n1Cc1cccc(F)c1,207 to 208
8,Nc1c(SC(F)(F)F)ncn1-c1c(Cl)cc(C(F)(F)F)cc1Cl,134
9,NCC(O)CNC(=O)CCCCCCCCCCCO (stereo unspecified),119
10,COc1ccc(-c2nc3n(c2-c2ccncc2)CCC3)cc1,158
11,CC(=O)OCC(CO)CCn1cnc2c(=O)[nH]c(N)nc21 (stereo unspecified),194 to 200
12,OC(Cn1cncn1)(c1ccc(Cl)cc1)C(Cl)(Cl)C(Cl)Cl (stereo unspecified),168 to 169
13,COc1cccc([C@H]2CCCN2[S@@](=O)C(C)(C)C)c1,45 to 50
14,CCOC(=O)c1nc(-c2ccc(OC)cc2)sc1C,65 to 66
15,Cc1cccc2c(=O)n(C3CCC(=O)NC3=O)c(C)nc12 (stereo unspecified),296 to 298
16,Cc1ccc2c(c1)C(=O)N(C)Cc1c(C#N)ncn1-2,252

# Further lines, results first:
row,melting point [°C],SMILES
1,191 to 192,O=C(Nc1c(C(O)(C(F)(F)F)C(F)(F)F)ccc2ccccc12)c1cccs1
2,138 to 139,CCS(=O)(=O)Nc1cc(-c2ncnc(C(F)F)c2Cl)c(F)cc1Cl
3,158 to 160,COc1ccc(C2=NN(C3CCN(S(=O)(=O)c4ccccc4C#N)CC3)C(=O)CC2)cc1OC
4,286 to 287,COc1ccc(-c2coc(-c3ccc(C(=O)O)cc3)n2)cc1
5,90 to 93,O=C(Nc1ccc(OCCN2CCOCC2)c2ccccc12)c1cccc(Br)c1
6,111,CCOCn1c(Cc2ccccc2)c(C(C)C)c(=O)[nH]c1=O
7,184 to 187,O=C1N(c2ccc(C(F)(F)F)cc2)CN2C(c3ccc(Cl)cc3)C(c3ccccc3)CN12 (stereo unspecified)
8,167 to 169,O=C1c2ccccc2C(=O)c2c(NCC(O)CCl)ccc(NCC(O)CCl)c21 (stereo unspecified)
9,209 to 210,Cc1noc(NC(=O)N2CCN(c3ccnc(-c4cccc(F)c4F)n3)CC2)c1C
10,126 to 127,CN(C)CCNC(=O)Cc1ccc(NC(=O)OCc2ccccc2)cc1
11,177 to 180,COc1ccc(/C=C/C(=O)c2ccc(CC3SC(=O)NC3=O)cc2)cc1 (stereo unspecified)
12,161 to 164,CCNS(=O)(=O)Cc1ccc(N)cc1
13,> 250,CC(C)Oc1cccc2c1C(=NNc1ccc(S(N)(=O)=O)cc1)C(=O)N2
14,172 to 173,Cc1ccccc1S(=O)(=O)OC1C2C(C(=O)N1Cc1ccc3c(c1)OCO3)C(c1ccc(Br)cc1)N(C)C2(C)C (stereo unspecified)
15,200,O=P(O)(O)c1ccc2ccccc2n1
16,> 300,N#Cc1cc(F)c2ncc(C(=O)NCc3ccc(Cl)cc3)c(O)c2c1
17,275 to 280,O=C1C=c2c(c3c(c4[nH]c5ccccc5c24)Cc2ccccc2-3)=N1
18,155,CS(=O)(=O)c1ccccc1C(=O)C(C#N)C(=O)C1CC1 (stereo unspecified)
19,150 to 152,CC(=O)NCCc1cn(S(=O)(=O)c2c(Cl)nc3sccn23)c2ccccc12
20,218 to 219,CCOC(=O)c1ccc(CC(=O)Nc2csc3nc(C(=O)NCc4cccc(OC)c4)[nH]c(=O)c23)cc1

row,melting point [°C],SMILES
1,251 to 254,CCCCc1oc2ccccc2c1-c1ncc(-c2ccc3cc(OCc4ccc(C(=O)O)cc4)ccc3c2)o1
2,230,CCOC(=O)c1nc2cc(C(C(C)C)n3ccnc3)ccc2[nH]c1=O (stereo unspecified)
3,238 to 239,COc1cccc(NC(=O)NC2N=C(C)c3ccccc3N(CC(=O)N(C)c3ccccc3)C2=O)c1 (stereo unspecified)
4,77,O=C(Cc1ccc(O)c(Cl)c1)Oc1cc(Cl)c(Cl)cc1Cl
5,124 to 127,CC(C)(O)c1ccc(-c2nn(Cc3ccccc3)c3ccccc23)o1
6,152 to 154,C#CCn1c(-c2ccccc2)nc(CC)c(O)c1=O
7,160 to 162,CC1=CCc2c1sc1c2CN(c2ccccc2Cl)CC2N(C(=O)O)CCN12 (stereo unspecified)
8,232 to 234,CN(C)CCn1c(=O)c(=NO)nc(-c2ccccc2)c2ccccc21
9,153,CC(O)C=Cc1ccc2c(c1)Cc1ccccc1-2 (stereo unspecified)
10,290,O=C1OC(=O)c2cc3ccc([N+](=O)[O-])cc3c3cccc1c23
11,135 to 136,Cc1ccc(OCCOc2ccc(C(=O)C(=O)O)cc2)cc1
12,153 to 161,CC(C)OCc1nc(C(C)(C)O)c(C(=O)O)n1Cc1ccc(-c2ccccc2-c2nnn[nH]2)cc1
13,222 to 223,CON=C(C)c1ccc(Nc2nc3ccccc3c3occc23)cc1
14,182,CN(Cc1cc(C(F)(F)F)cc(C(F)(F)F)c1)C(=O)c1nc(N)ncc1-c1ccccc1
15,> 200,CC(=O)SCC(Cc1cccnc1)C(=O)Nc1cccc(C(=O)O)c1 (stereo unspecified)
16,97 to 100,NC(=O)c1cccc(OCCCCCCCc2ccsc2)c1
17,45.6 to 46.8,Cc1ccc(CCC(=O)C(=[N+]=[N-])C(=O)CCc2ccc(C)cc2)cc1
18,213 to 214,O=C1N(c2c(Cl)cccc2Cl)Cc2cnc(Nc3cccc4ccccc34)nc2N1c1ccccc1
19,256 to 258,COc1ccc2c(Cc3c(Cl)cncc3Cl)nn(CC(=O)NO)c(=O)c2c1
